In ChEMBL document CHEMBL6103624, “Design, Synthesis, and Biological Evaluation of Marchantin C-NO Donor Hybrids for Overcoming Pgp-Mediated Drug Resistance by Targeting Lysosome” (J Med Chem, 2025):
The source made the active and inactive calls. The calls are words filed in the database; no cut-off is given here.

Legend:
[1] = tested on: A549/TR; experiment: Antiproliferative activity against human A549/Taxol cells assessed as inhibition of cell growth incubated for 48 hrs by MTT assay; assay type: functional, cell-based
[2] = tested on: PC-3; experiment: Antiproliferative activity against human PC-3 cells assessed as inhibition of cell growth incubated for 48 hrs by MTT assay; assay type: functional, cell-based; details: PC-3, 48 h
[3] = tested on: A549; experiment: Antiproliferative activity against human A549 cells assessed as inhibition of cell growth incubated for 48 hrs by MTT assay; assay type: functional, cell-based; details: A549, 48 h
[4] = tested on: HepG2; experiment: Antiproliferative activity against human HepG2 cells assessed as inhibition of cell growth incubated for 48 hrs by MTT assay; assay type: functional, cell-based; details: HepG2, 48 h
[5] = Cytotoxicity against human BEAS-2B cells assessed as inhibition of cell growth incubated for 48 hrs by MTT assay; assay type: toxicity, cell-based
[6] = tested on: MCF7; experiment: Antiproliferative activity against human MCF7 cells assessed as inhibition of cell growth incubated for 48 hrs by MTT assay; assay type: functional, cell-based; details: MCF7, 48 h
[7] = tested on: NCI/ADR-RES; experiment: Antiproliferative activity against human MCF7ADR cells assessed as inhibition of cell growth incubated for 48 hrs by MTT assay; assay type: functional, cell-based
[8] = Selectivity index, ratio of IC50 for antiproliferative activity against human A549 cells assessed as inhibition of cell growth to IC50 for antiproliferative activity against human A549/Taxol cells assessed as inhibition of cell growth; assay type: functional
[9] = Selectivity index, ratio of IC50 for antiproliferative activity against human MCF7 cells assessed as inhibition of cell growth to IC50 for antiproliferative activity against human MCF7ADR cells assessed as inhibition of cell growth; assay type: functional
[10] = Cytotoxicity against human MCF-10A cells assessed as inhibition of cell growth incubated for 48 hrs by MTT assay; assay type: toxicity, cell-based
[11] = tested on: NCI/ADR-RES; experiment: Induction of NO release in human MCF7ADR cells at 100 uM by Griess reagent assay; assay type: functional, cell-based; details: time <= 10.0 hrs
[12] = Selectivity index, ratio of IC50 for human MCF-10A to IC50 for human MDA-MB-231 cells; assay type: toxicity; details: MCF-10A cells and MDA-MB-231 cells, read-out: Ratio IC50
[13] = tested on: MCF7; experiment: Induction of NO release in human MCF7 cells at 100 uM measured for 5 hrs by Griess reagent assay; assay type: functional, cell-based
[14] = tested on: NCI/ADR-RES; experiment: Induction of NO release in human MCF7ADR cells at 100 uM measured for 5 hrs by Griess reagent assay; assay type: functional, cell-based

Structure (SMILES)	IC50 [1]	IC50 [2]	IC50 [3]	IC50 [4]	IC50 [6]	IC50 at 48 h [5]	IC50 [7]	Ratio IC50 [8]	Ratio IC50 [9]	IC50 at 48 h [10]	Activity [11]	selectivity ratio [12]	Activity [13]	Activity [14]
O=C(/N=c1/c[n+](-c2ccccc2)[n-]o1)Oc1ccc2cc1Oc1ccc(cc1)CCc1cccc(OC(=O)/N=c3/c[n+](-c4ccccc4)[n-]o3)c1Oc1cccc(c1)CC2		> 20 µM	> 40 µM	> 20 µM										
COc1cccc2c1C(=O)c1c(O)c3c(c(O)c1C2=O)C[C@@](O)(C(=O)CO)C[C@@H]3O[C@H]1C[C@H](N)[C@H](O)[C@H](C)O1 [DOXORUBICIN]					< 0.025 µM	< 2.5 µM	32 µM		<0.001	< 2.5 µM				
CC(=O)CCCCn1c(=O)c2c(ncn2C)n(C)c1=O [PENTOXIFYLLINE]	> 20 µM		11 µM					<0.5						
O=[N+]([O-])OCC(COc1ccc2cc1Oc1ccc(cc1)CCc1cccc(OCC(CO[N+](=O)[O-])O[N+](=O)[O-])c1Oc1cccc(c1)CC2)O[N+](=O)[O-] (stereo not given)		> 20 µM	> 40 µM	> 20 µM	> 20 µM		> 20 µM							
CCN(CC)c1ccc2cc(C(=O)OCCCCCOc3cc4ccc(=O)oc4cc3OCCCCCCOc3no[n+]([O-])c3S(=O)(=O)c3ccccc3)c(=O)oc2c1												> 6250		
O=S(=O)(c1ccccc1)c1c(OC/C=C\COc2ccc3cc2Oc2ccc(cc2)CCc2cccc(OC/C=C\COc4no[n+]([O-])c4S(=O)(=O)c4ccccc4)c2Oc2cccc(c2)CC3)no[n+]1[O-]					> 20 µM		> 3 µM		<7					
O=C(/N=c1\c[n+](-c2ccccc2)[n-]o1)Oc1cccc2c1Oc1cccc(c1)CCc1ccc(O)c(c1)Oc1ccc(cc1)CC2		> 20 µM	> 40 µM	> 20 µM	> 20 µM		> 20 µM				Time-dependent-effect		inactive	inactive
O=C(CCCCCOc1no[n+]([O-])c1S(=O)(=O)c1ccccc1)Oc1ccc2cc1Oc1ccc(cc1)CCc1cccc(OC(=O)CCCCCOc3no[n+]([O-])c3S(=O)(=O)c3ccccc3)c1Oc1cccc(c1)CC2	> 20 µM	> 20 µM	> 40 µM	> 20 µM	> 20 µM		> 3 µM		<7					
O=[N+]([O-])OCC(COc1cccc2c1Oc1cccc(c1)CCc1ccc(O)c(c1)Oc1ccc(cc1)CC2)O[N+](=O)[O-] (stereo not given)		11.7 µM	> 40 µM	> 20 µM	> 20 µM		> 20 µM				Time-dependent-effect		inactive	inactive
O=S(=O)(c1ccccc1)c1c(OCCOCCOc2cccc3c2Oc2cccc(c2)CCc2ccc(O)c(c2)Oc2ccc(cc2)CC3)no[n+]1[O-]	12.1 µM	4.41 µM	> 40 µM	> 20 µM	15.2 µM	5.14 µM	1.01 µM	>3	15	< 2.5 µM				
O=S(=O)(c1ccccc1)c1c(OC/C=C\COc2cccc3c2Oc2cccc(c2)CCc2ccc(O)c(c2)Oc2ccc(cc2)CC3)no[n+]1[O-]	> 20 µM		> 40 µM		> 20 µM		> 3 µM		<7					
O=S(=O)(c1ccccc1)c1c(OCCCCCCOc2cccc3c2Oc2cccc(c2)CCc2ccc(O)c(c2)Oc2ccc(cc2)CC3)no[n+]1[O-]	6.65 µM	> 20 µM	> 40 µM	> 20 µM	> 20 µM	> 20 µM	0.37 µM	>6	>54	> 20 µM				
O=C(CCCOc1no[n+]([O-])c1S(=O)(=O)c1ccccc1)Oc1cccc2c1Oc1cccc(c1)CCc1ccc(O)c(c1)Oc1ccc(cc1)CC2		> 20 µM	> 40 µM	> 20 µM										
O=S(=O)(c1ccccc1)c1c(OCCCCCCOc2ccc3cc2Oc2ccc(cc2)CCc2cccc(OCCCCCCOc4no[n+]([O-])c4S(=O)(=O)c4ccccc4)c2Oc2cccc(c2)CC3)no[n+]1[O-]	> 20 µM	> 20 µM	> 40 µM	> 20 µM	27.8 µM		> 3 µM		<9					
O=C(/C=C\COc1no[n+]([O-])c1S(=O)(=O)c1ccccc1)Oc1ccc2cc1Oc1ccc(cc1)CCc1cccc(OC(=O)/C=C\COc3no[n+]([O-])c3S(=O)(=O)c3ccccc3)c1Oc1cccc(c1)CC2		> 20 µM	> 40 µM	> 20 µM										

Now from value to compound, other results behind:

IC50 [1]	IC50 [2]	IC50 [3]	IC50 [4]	IC50 [6]	Structure (SMILES)	IC50 at 48 h [5]	IC50 [7]	Ratio IC50 [8]	Ratio IC50 [9]	IC50 at 48 h [10]	Activity [11]	selectivity ratio [12]	Activity [13]	Activity [14]
3.39 µM	2.92 µM	19.1 µM	1.69 µM	9.1 µM	O=S(=O)(c1ccccc1)c1c(OCCOc2cccc3c2Oc2cccc(c2)CCc2ccc(O)c(c2)Oc2ccc(cc2)CC3)no[n+]1[O-]	13.7 µM	0.9 µM	6	10					
10.2 µM	> 20 µM	38.4 µM	> 20 µM	21 µM	O=S(=O)(c1ccccc1)c1c(OCCCOc2ccc3cc2Oc2ccc(cc2)CCc2cccc(OCCCOc4no[n+]([O-])c4S(=O)(=O)c4ccccc4)c2Oc2cccc(c2)CC3)no[n+]1[O-]		1 µM	4	21					
4.79 µM	1.2 µM	33.6 µM		8.5 µM	O=S(=O)(c1ccccc1)c1c(OCCCOc2ccc3cc2Oc2ccc(cc2)CCc2cccc(O)c2Oc2cccc(c2)CC3)no[n+]1[O-]	< 2.5 µM	0.24 µM	7	35					
5.36 µM	2.69 µM	15.2 µM		10.9 µM	O=S(=O)(c1ccccc1)c1c(OCCOc2ccc3cc2Oc2ccc(cc2)CCc2cccc(O)c2Oc2cccc(c2)CC3)no[n+]1[O-]		0.2 µM	3	55					
	> 20 µM	> 40 µM	> 20 µM	> 20 µM	O=[N+]([O-])c1ccc(O/N=[N+](\[O-])N2CCN(Cc3ccc4c(c3O)Oc3cccc(c3)CCc3ccc(O)c(c3)Oc3ccc(cc3)CC4)CC2)c([N+](=O)[O-])c1		> 3 µM		<7		Time-dependent-effect			
	> 20 µM	> 40 µM	> 20 µM		CCO/N=[N+](\[O-])N1CCN(Cc2ccc3c(c2O)Oc2cccc(c2)CCc2ccc(O)c(c2)Oc2ccc(cc2)CC3)CC1									
	> 20 µM	> 40 µM	> 20 µM		CO/N=[N+](\[O-])N1CCN(Cc2ccc3c(c2O)Oc2cccc(c2)CCc2ccc(O)c(c2)Oc2ccc(cc2)CC3)CC1									
5.92 µM	> 20 µM	> 40 µM	> 20 µM	> 20 µM	O=S(=O)(c1ccccc1)c1c(OCCCCOc2cccc3c2Oc2cccc(c2)CCc2ccc(O)c(c2)Oc2ccc(cc2)CC3)no[n+]1[O-]	> 20 µM	0.098 µM	>7	>204	8.32 µM				
15.1 µM	> 20 µM	39.5 µM	> 20 µM	15.2 µM	O=C(CCCOc1no[n+]([O-])c1S(=O)(=O)c1ccccc1)Oc1ccc2cc1Oc1ccc(cc1)CCc1cccc(OC(=O)CCCOc3no[n+]([O-])c3S(=O)(=O)c3ccccc3)c1Oc1cccc(c1)CC2		0.68 µM	3	22					
> 20 µM	> 20 µM	> 40 µM	> 20 µM	> 20 µM	O=S(=O)(c1ccccc1)c1c(OCCCCOc2ccc3cc2Oc2ccc(cc2)CCc2cccc(OCCCCOc4no[n+]([O-])c4S(=O)(=O)c4ccccc4)c2Oc2cccc(c2)CC3)no[n+]1[O-]		> 3 µM		<7					
> 20 µM	> 20 µM	> 40 µM	6.46 µM	13.7 µM	O=C(/C=C\COc1no[n+]([O-])c1S(=O)(=O)c1ccccc1)Oc1cccc2c1Oc1cccc(c1)CCc1ccc(O)c(c1)Oc1ccc(cc1)CC2		> 3 µM		<5					
	> 20 µM	> 40 µM	> 20 µM	> 20 µM	O=S(=O)(c1ccccc1)c1c(Oc2ccc(COc3cccc4c3Oc3cccc(c3)CCc3ccc(O)c(c3)Oc3ccc(cc3)CC4)cc2)no[n+]1[O-]		> 3 µM		<7					
	> 20 µM	> 40 µM	> 20 µM		O=C(CCCCCOc1no[n+]([O-])c1S(=O)(=O)c1ccccc1)Oc1cccc2c1Oc1cccc(c1)CCc1ccc(O)c(c1)Oc1ccc(cc1)CC2									
11.5 µM	> 20 µM	41.2 µM	> 20 µM	24.9 µM	O=S(=O)(c1ccccc1)c1c(OCCOc2ccc3cc2Oc2ccc(cc2)CCc2cccc(OCCOc4no[n+]([O-])c4S(=O)(=O)c4ccccc4)c2Oc2cccc(c2)CC3)no[n+]1[O-]		3.2 µM	4	8					
